Measured values as given in patent US10329294B2, “Pyrazolopyrimidine inhibitors of IRAK4 activity” (MERCK SHARP & DOHME CORP., priority 2015, dated 2019).
Where a name gives a salt, the structure may show the parent alone.

Each molecule was assayed against IRAK4 (Homo sapiens (Human), UniProt Q9NWZ3) (assay: IRAK4 Kinase Assay). Settings: IMAP fluorescence polarization, 0.5 nM GST tagged IRAK4, 100 μM ATP, 30 minutes at 25° C.; read-out: IRAK4 IC50.
Format: biochemical
Method: The kinase activity of IRAK4 is determined by its ability to catalyze the phosphorylation of a fluorescent polypeptide substrate. The extent of phosphorylation is measured using the IMAP technology (Molecular Devices) where the phosphorylated fluorescent substrate binds to the large M(III)-based nanoparticles which reduces the rotational speed of the substrate and thus increases its fluorescent polarization (FP).
20 μL reaction mixture contains 10 mM TriHCl, pH 7.2, 0.5 nM GST tagged IRAK4 (SignalChem), 100 nM fluorescent peptide substrate (RP7030, Molecular Devices), 100 μM ATP, 1 mM DDT, 1 mM MgCl2, and 0.01% Tween 20. The reaction is initiated by the addition of ATP. After incubation for 30 minutes at 25° C., 60 μL of Progressive IMAP Reagent (Molecular Devices) is added to stop the reaction. Change in RP7030's FP is determined by a FP reader (Analyst HT, LJL BioSystems).

Sequence of IRAK4 (Q9NWZ3 whole entry): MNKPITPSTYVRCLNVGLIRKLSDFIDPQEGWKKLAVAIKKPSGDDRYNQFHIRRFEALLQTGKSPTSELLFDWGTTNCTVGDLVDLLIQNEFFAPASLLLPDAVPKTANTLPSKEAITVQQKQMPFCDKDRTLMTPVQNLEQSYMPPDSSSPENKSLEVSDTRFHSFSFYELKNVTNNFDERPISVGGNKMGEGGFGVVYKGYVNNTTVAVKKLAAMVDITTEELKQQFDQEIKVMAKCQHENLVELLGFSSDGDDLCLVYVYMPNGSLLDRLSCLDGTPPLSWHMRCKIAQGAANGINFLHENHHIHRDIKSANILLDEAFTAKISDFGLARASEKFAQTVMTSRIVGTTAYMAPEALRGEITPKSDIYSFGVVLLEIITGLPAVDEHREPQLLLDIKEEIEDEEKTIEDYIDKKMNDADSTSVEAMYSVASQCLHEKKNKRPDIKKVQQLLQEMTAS

Row | SMILES | IC50 [µM]
1 | N#Cc1ccccc1NC(=O)c1cnn2ccc(N[C@@H]3CCCC[C@@H]3N)nc12 [Example 265, 5-(((1R,2S)-2-Aminocyclohexyl)amino)-N-(2-cyanophenyl)pyrazolo[1,5-a]pyrimidine-3-carboxamide] | 0.001
2 | N#Cc1ccccc1NC(=O)c1cnn2ccc(N[C@@H]3CCCC[C@@H]3O)nc12 [Example 266, N-(2-cyanophenyl)-5-{[(1R,2S)-2-hydroxycyclohexyl]amino}pyrazolo[1,5-a]pyrimidine-3-carboxamide trifluoroacetate] | 0.562
3 | N#Cc1ccccc1NC(=O)c1cnn2ccc(N3CCNCC4(CC4)C3)nc12 [Example 267, N-(2-cyanophenyl)-5-(5,8-diazaspiro[2.6]non-5-yl)pyrazolo[1,5-a]pyrimidine-3-carboxamide trifluoroacetate] | 0.351
4 | N#Cc1ccccc1NC(=O)c1cnn2ccc(N[C@@H]3CCCC(F)(F)[C@@H]3N)nc12 [Example 268, 5-{[(1R,2R)-2-amino-3,3-difluorocyclohexyl]amino}-N-(2-cyanophenyl)pyrazolo[1,5-a]pyrimidine-3-carboxamide] | 0.268
5 | N#Cc1ccccc1NC(=O)c1cnn2ccc(N3CCC[C@@H](N)C3)nc12 [Example 269, 5-[(3R)-3-aminopiperidin-1-yl]-N-(2-cyanophenyl)pyrazolo[1,5-a]pyrimidine-3-carboxamide trifluoroacetate] | 0.143
6 | N#Cc1ccccc1NC(=O)c1cnn2ccc(N[C@@H]3CCCNC3)nc12 [Example 270, N-(2-cyanophenyl)-5-[(3R)-piperidin-3-ylamino]pyrazolo[1,5-a]pyrimidine-3-carboxamide trifluoroacetate] | 0.01
7 | N#Cc1ccccc1NC(=O)c1cnn2ccc(N3CC4CCC3CN4)nc12 (centres unmarked) [Example 271, N-(2-cyanophenyl)-5-(2,5-diazabicyclo[2.2.2]oct-2-yl)pyrazolo[1,5-a]pyrimidine-3-carboxamide trifluoroacetate] | 0.403
8 | N#Cc1ccccc1NC(=O)c1cnn2ccc(NC3CCCCNC3)nc12 (centres unmarked) [Example 272, 5-(azepan-3-ylamino)-N-(2-cyanophenyl)pyrazolo[1,5-a]pyrimidine-3-carboxamide trifluoroacetate] | 0.057
9 | N#Cc1ccccc1NC(=O)c1cnn2ccc(N3CCCNCC3)nc12 [Example 273, N-(2-cyanophenyl)-5-(1,4-diazepan-1-yl)pyrazolo[1,5-a]pyrimidine-3-carboxamide trifluoroacetate] | 1.36
10 | N#Cc1ccccc1NC(=O)c1cnn2ccc(N3CCNCC3)nc12 [Example 274, N-(2-cyanophenyl)-5-piperazin-1-ylpyrazolo[1,5-a]pyrimidine-3-carboxamide trifluoroacetate] | 0.66
11 | N[C@H]1CCCC[C@H]1Nc1ccn2ncc(C(=O)Nc3csc(CO)c3)c2n1 [Example 275, 5-(((1R,2S)-2-Aminocyclohexyl)amino)-N-(5-(hydroxymethyl)thiophen-3-yl)pyrazolo[1,5-a]pyrimidine-3-carboxamide] | 0.017
12 | CC(O)c1cc(NC(=O)c2cnn3ccc(N[C@@H]4CCCC[C@@H]4N)nc23)cs1 (stereo partly drawn) [Example 276, 5-(((1R,2S)-2-Aminocyclohexyl)amino)-N-(5-(1-hydroxyethyl)thiophen-3-yl)pyrazolo[1,5-a]pyrimidine-3-carboxamide] | 0.064
13 | N[C@@H]1CCCC[C@@H]1Nc1ccn2ncc(C(=O)Nc3cnn(-c4cccnc4)c3)c2n1 [Example 278, 5-{[(1S,2R)-2-aminocyclohexyl]amino}-N-(1-pyridin-3-yl-1H-pyrazol-4-yl)pyrazolo[1,5-a]pyrimidine-3-carboxamide trifluoroacetate] | 0.009
14 | COCCc1nn(C)cc1NC(=O)c1cnn2ccc(N[C@@H]3CCCC[C@@H]3N)nc12 [Example 283, 5-{[(1R,2S)-2-aminocyclohexyl]amino}-N-[3-(2-methoxyethyl)-1-methyl-1H-pyrazol-4-yl]pyrazolo[1,5-a]pyrimidine-3-carboxamide trifluoroacetate] | 0.076
15 | Cc1cnc(-c2nn(C)cc2NC(=O)c2cnn3ccc(N[C@@H]4CCCC[C@@H]4N)nc23)o1 [Example 285, 5-{[(1R,2S)-2-aminocyclohexyl]amino}-N-[1-methyl-3-(5-methyl-1,3-oxazol-2-yl)-1H-pyrazol-4-yl]pyrazolo[1,5-a]pyrimidine-3-carboxamide trifluoroacetate] | 0.024
16 | Cn1cc(NC(=O)c2cnn3ccc(N[C@@H]4CCCC[C@@H]4N)nc23)c(-c2nncn2C)n1 [Example 286, 5-{[(1R,2S)-2-aminocyclohexyl]amino}-N-[1-methyl-3-(4-methyl-4H-1,2,4-triazol-3-yl)-1H-pyrazol-4-yl]pyrazolo[1,5-a]pyrimidine-3-carboxamide trifluoroacetate] | 0.007
17 | Cc1nc(-c2nn(C)cc2NC(=O)c2cnn3ccc(N[C@@H]4CCCC[C@@H]4N)nc23)no1 [Example 288, 5-{[(1R,2S)-2-aminocyclohexyl]amino}-N-[1-methyl-3-(5-methyl-1,2,4-oxadiazol-3-yl)-1H-pyrazol-4-yl]pyrazolo[1,5-a]pyrimidine-3-carboxamide] | 0.01
18 | Cn1cc(NC(=O)c2cnn3ccc(N[C@@H]4CCCC[C@@H]4N)nc23)c(CCF)n1 [Example 289, 5-{[(1R,2S)-2-aminocyclohexyl]amino}-N-[3-(2-fluoroethyl)-1-methyl-1H-pyrazol-4-yl]pyrazolo[1,5-a]pyrimidine-3-carboxamide trifluoroacetate] | 0.003
19 | Cn1cc(NC(=O)c2cnn3ccc(NCCN4CCOCC4)nc23)c(C(F)(F)F)n1 [Example 290, N-[1-methyl-3-(trifluoromethyl)-1H-pyrazol-4-yl]-5-[(2-morpholin-4-ylethyl)amino]pyrazolo[1,5-a]pyrimidine-3-carboxamide trifluoroacetate] | 0.977
20 | CC(C)n1cc(NC(=O)c2cnn3ccc(N[C@@H]4CCCC[C@@H]4N)nc23)c(C(F)(F)F)n1 [Example 291, 5-{[(1R,2S)-2-aminocyclohexyl]amino}-N-[1-(1-methylethyl)-3-(trifluoromethyl)-1H-pyrazol-4-yl]pyrazolo[1,5-a]pyrimidine-3-carboxamide trifluoroacetate] | 0.0008
21 | N[C@H]1CCCC[C@H]1Nc1ccn2ncc(C(=O)Nc3cn(CC(F)F)nc3C(F)(F)F)c2n1 [Example 292, 5-{[(1R,2S)-2-aminocyclohexyl]amino}-N-[1-(2,2-difluoroethyl)-3-(trifluoromethyl)-1H-pyrazol-4-yl]pyrazolo[1,5-a]pyrimidine-3-carboxamide trifluoroacetate] | 0.0008
22 | N[C@H]1CCCC[C@H]1Nc1ccn2ncc(C(=O)Nc3cn(C4CC4)nc3C(F)(F)F)c2n1 [Example 293, 5-{[(1R,2S)-2-aminocyclohexyl]amino}-N-[1-cyclopropyl-3-(trifluoromethyl)-1H-pyrazol-4-yl]pyrazolo[1,5-a]pyrimidine-3-carboxamide trifluoroacetate] | 0.0004
23 | CC(C)(C)n1cc(NC(=O)c2cnn3ccc(N[C@@H]4CCCC[C@@H]4N)nc23)c(C(F)(F)F)n1 [Example 294, 5-{[(1R,2S)-2-aminocyclohexyl]amino}-N-[1-tert-butyl-3-(trifluoromethyl)-1H-pyrazol-4-yl]pyrazolo[1,5-a]pyrimidine-3-carboxamide trifluoroacetate] | 0.001
24 | N[C@H]1CCCC[C@H]1Nc1ccn2ncc(C(=O)Nc3cn(CC(F)(F)F)nc3C(F)(F)F)c2n1 [Example 295, 5-{[(1R,2S)-2-aminocyclohexyl]amino}-N-[1-(2,2,2-trifluoroethyl)-3-(trifluoromethyl)-1H-pyrazol-4-yl]pyrazolo[1,5-a]pyrimidine-3-carboxamide trifluoroacetate] | 0.001
25 | N[C@H]1CCCC[C@H]1Nc1ccn2ncc(C(=O)Nc3cn(C(F)F)nc3C(F)(F)F)c2n1 [Example 296, 5-{[(1R,2S)-2-aminocyclohexyl]amino}-N-[1-(difluoromethyl)-3-(trifluoromethyl)-1H-pyrazol-4-yl]pyrazolo[1,5-a]pyrimidine-3-carboxamide trifluoroacetate] | 0.002
26 | CC(C)n1cc(NC(=O)c2cnn3ccc(N4CCNCC4)nc23)c(C(F)(F)F)n1 [Example 298, N-[1-(1-methylethyl)-3-(trifluoromethyl)-1H-pyrazol-4-yl]-5-piperazin-1-ylpyrazolo[1,5-a]pyrimidine-3-carboxamide trifluoroacetate] | 0.017
27 | O=C(Nc1cn(CC(F)(F)F)nc1C(F)(F)F)c1cnn2ccc(N3CCNCC3)nc12 [Example 299, 5-piperazin-1-yl-N-[1-(2,2,2-trifluoroethyl)-3-(trifluoromethyl)-1H-pyrazol-4-yl]pyrazolo[1,5-a]pyrimidine-3-carboxamide trifluoroacetate] | 0.081
28 | O=C(Nc1cn(C(F)F)nc1C(F)(F)F)c1cnn2ccc(N3CCNCC3)nc12 [Example 300, N-[1-(difluoromethyl)-3-(trifluoromethyl)-1H-pyrazol-4-yl]-5-piperazin-1-ylpyrazolo[1,5-a]pyrimidine-3-carboxamide trifluoroacetate] | 0.055
29 | N[C@H]1CCCC[C@H]1Nc1ccn2ncc(C(=O)Nc3c[nH]nc3C(F)(F)F)c2n1 [Example 301, 5-{[(1R,2S)-2-aminocyclohexyl]amino}-N-[3-(trifluoromethyl)-1H-pyrazol-4-yl]pyrazolo[1,5-a]pyrimidine-3-carboxamide trifluoroacetate] | 0.0008
